What is called EC50 is the concentration needed to bring the measured effect to its halfway point. By IC50 is commonly meant the midpoint of a concentration-inhibition curve. As usually defined, the AC50 is the concentration giving half of the maximal activity seen.

Our source for the EC50, IC50 and AC50 values is ChEMBL document CHEMBL1201862, “PubChem BioAssay data set” (2004).

For assay [1], the target named is Serine/threonine-protein phosphatase (Candida dubliniensis (strain CD36 / CBS 7987 / NCPF 3949 / NRRLY-17841) (Yeast), UniProt B9W6M3). The assay is described as follows: blockers of CaCl2-induced CDRE-lacZ signaling – S. cerevisiae, luminescence, secondary, dose response (AID 2388).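 Note: yeast reporter cells carrying a calcineurin-responsive lacZ construct stimulated with calcium chloride; luminescent beta-galactosidase reporter signal in whole cells rather than isolated phosphatase activity; potency for inhibition where a drop in reporter signal means calcineurin blockade.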 The class given is functional, cell-based.
Assay [2] addresses ATP-dependent molecular chaperone HSP82 (Candida albicans (strain WO-1) (Yeast), UniProt C4YTQ8). In words: steroid-induced GRE reporter decrease in yeast – S. cerevisiae, luminescence, Hsp90 inhibitor project, dose response (AID 2400).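 Note: beta-galactosidase luminescence from glucocorticoid response element reporter as proxy for Hsp90 function; inhibitor potency where signal loss means Hsp90 inhibition.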 The format is functional, cell-based.
Assay [3] in a line: viability of PTEN-deleted HCT116 cells – cell-based, HCT116 PTEN knockout, dose response (AID 1047).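 Note: HCT116 colon tumor cells with PTEN knocked out; cells exposed to compound for 60 hours before readout; potency for loss of cell viability measured by luminescence.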 The class given is functional.
Assay [4] is described as follows: NIH3T3 cell viability loss – ATP luminescence, mouse fibroblasts, counter-screen, dose response (AID 2010).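 Note: cells exposed to compound for about 90 hours before reading.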 The class given is functional, cell-based.
A short description of assay [5]: Trypanosoma cruzi growth suppression in host cells – NIH3T3 host cells, beta-gal luminescence, confirmation (AID 2044).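 Note: intracellular parasites grown in NIH/3T3 mouse fibroblasts as host cells; luminescent beta-galactosidase reporter signal from transgenic T. cruzi replicating inside host cells; inhibitors lower the luminescence signal.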 The class given is functional, cell-based.
The nature of assay [6]: fluconazole-exposed Candida albicans growth modulators – fluorescence, retest, confirmation (AID 2467). The class given is functional, cell-based.
The target of another assay is Nonstructural protein 1 (Influenza A virus, UniProt Q194T2). The format is functional, Influenza A virus (A/California/07/2009(H1N1)).
Assay [7] concerns the target T1, Replicative DNA helicase DnaB (Mycobacterium tuberculosis, UniProt P9WMR3).
T1 sequence (P9WMR3 whole entry): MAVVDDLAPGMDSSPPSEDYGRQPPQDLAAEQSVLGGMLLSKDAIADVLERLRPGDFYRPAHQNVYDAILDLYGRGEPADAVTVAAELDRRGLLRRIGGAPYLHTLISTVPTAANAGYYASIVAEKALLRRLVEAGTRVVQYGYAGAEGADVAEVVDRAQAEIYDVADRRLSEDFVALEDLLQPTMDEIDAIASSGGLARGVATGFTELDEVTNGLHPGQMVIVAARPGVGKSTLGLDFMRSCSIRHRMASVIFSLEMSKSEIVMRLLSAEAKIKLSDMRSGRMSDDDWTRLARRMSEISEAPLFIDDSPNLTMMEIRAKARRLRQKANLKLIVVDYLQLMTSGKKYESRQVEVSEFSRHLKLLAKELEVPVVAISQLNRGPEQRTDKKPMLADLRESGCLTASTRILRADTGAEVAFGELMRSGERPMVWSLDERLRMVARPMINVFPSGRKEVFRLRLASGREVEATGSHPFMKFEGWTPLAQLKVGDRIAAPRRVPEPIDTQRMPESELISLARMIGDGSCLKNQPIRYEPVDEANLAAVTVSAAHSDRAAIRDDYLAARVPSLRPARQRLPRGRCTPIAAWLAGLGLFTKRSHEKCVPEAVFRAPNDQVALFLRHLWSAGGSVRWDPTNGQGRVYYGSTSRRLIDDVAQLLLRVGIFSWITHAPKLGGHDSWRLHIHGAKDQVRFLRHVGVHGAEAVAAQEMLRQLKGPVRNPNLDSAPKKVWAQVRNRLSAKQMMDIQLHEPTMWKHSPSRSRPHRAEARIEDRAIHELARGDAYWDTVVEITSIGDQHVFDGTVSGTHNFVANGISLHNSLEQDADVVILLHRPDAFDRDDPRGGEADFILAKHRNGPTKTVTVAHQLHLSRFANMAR
The assay is described as follows: DnaB intein splicing inhibitors, dose response, biochemical, cell-free fluorescence (AID 449749). The format is functional.

Assay [8] is described as follows: viability of HCT116 lacking mutant beta-catenin – cell-based, human colon tumor, dose response (AID 1045).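 Note: HCT116 colon tumor cells with beta catenin knocked out; cells exposed to compound for 60 hours.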 The format is functional.
The nature of assay [9]: NIH-3T3 fibroblast cytotoxicity, dose response, cytotoxicity control, cell-based, fluorescence, Alamar Blue, secondary assay (AID 2327).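 Note: NIH-3T3 mouse fibroblasts cultured with fluconazole at 8 µg/mL.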 The format is functional. On the technique in general: The colour change of resazurin is a common sign of viable cells or microbes.
A further assay has as its target T2, Protein RecA (Mycobacterium tuberculosis, UniProt P9WHJ3).
T2 sequence (P9WHJ3 whole entry): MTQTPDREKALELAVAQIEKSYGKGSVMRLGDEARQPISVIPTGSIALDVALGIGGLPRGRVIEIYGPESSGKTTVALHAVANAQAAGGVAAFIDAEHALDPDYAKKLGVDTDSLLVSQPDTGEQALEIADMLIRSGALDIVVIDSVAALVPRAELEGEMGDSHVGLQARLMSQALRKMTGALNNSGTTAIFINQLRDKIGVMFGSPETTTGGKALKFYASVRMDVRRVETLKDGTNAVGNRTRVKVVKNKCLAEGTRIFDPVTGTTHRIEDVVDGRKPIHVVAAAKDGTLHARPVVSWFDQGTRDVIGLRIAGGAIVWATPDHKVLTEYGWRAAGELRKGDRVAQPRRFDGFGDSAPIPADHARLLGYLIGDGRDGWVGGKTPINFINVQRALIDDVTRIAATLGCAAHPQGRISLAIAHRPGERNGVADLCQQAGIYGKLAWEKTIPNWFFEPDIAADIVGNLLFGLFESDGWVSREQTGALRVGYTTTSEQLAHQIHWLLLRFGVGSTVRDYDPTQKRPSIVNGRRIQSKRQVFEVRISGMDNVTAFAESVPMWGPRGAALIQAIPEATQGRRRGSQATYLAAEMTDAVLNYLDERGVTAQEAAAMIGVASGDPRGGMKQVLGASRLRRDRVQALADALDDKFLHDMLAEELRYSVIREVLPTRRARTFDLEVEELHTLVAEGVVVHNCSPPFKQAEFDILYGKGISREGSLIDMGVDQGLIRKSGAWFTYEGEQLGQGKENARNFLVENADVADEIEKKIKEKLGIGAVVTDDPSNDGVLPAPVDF
The assay is described as follows: Fluorescence Cell-Free Homogeneous Dose Retest to Identify Inhibitors of RecA-Intein Splicing Activity. [Related pubchem assays (depositor defined):AID2097, AID2223, AID489010, AID492950]. The format is functional.

In the next assay the target is Estrogen receptor beta (Homo sapiens, UniProt Q92731). In words: blockers of SRC-3 recruitment to ERβ – biochemical, ELISA, streptavidin-HRP readout, orthogonal assay, confirmation (AID 1060). Background: ELISA stands for enzyme-linked immunosorbent assay.
For assay [10], the target named is T3, Heat shock factor protein 1 (Mus musculus, UniProt P38532).
T3 sequence (P38532 whole entry): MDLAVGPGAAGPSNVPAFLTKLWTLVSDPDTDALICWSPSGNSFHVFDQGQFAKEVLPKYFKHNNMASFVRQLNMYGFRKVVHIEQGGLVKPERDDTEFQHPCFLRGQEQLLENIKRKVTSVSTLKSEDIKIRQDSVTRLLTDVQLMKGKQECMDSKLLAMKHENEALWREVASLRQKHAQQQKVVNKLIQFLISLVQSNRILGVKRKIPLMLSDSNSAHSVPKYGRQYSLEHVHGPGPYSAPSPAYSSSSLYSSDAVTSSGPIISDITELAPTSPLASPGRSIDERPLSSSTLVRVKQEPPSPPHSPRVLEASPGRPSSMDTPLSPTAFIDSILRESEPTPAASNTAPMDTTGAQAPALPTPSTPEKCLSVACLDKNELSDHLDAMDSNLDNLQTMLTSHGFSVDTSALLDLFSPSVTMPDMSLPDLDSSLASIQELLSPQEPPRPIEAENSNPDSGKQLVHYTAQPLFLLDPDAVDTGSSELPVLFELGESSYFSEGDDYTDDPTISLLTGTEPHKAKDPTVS
The assay is described as follows: decrease of HSF1-responsive luciferase luminescence – cell-based, NIH3T3, dose retest, confirmation (AID 2382).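 Note: NIH3T3 fibroblasts with HSF1-driven luciferase reporter stressed by proteasome inhibitor MG132; luminescence from HSF1-driven luciferase expression after 8 hours of MG132 stress.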 The format is functional.

For a further assay, the target named is Cytochrome P450 2C19 (Homo sapiens, UniProt P33261). The assay is described as follows: Cytochrome panel assay with activity outcomes. Panel member name: p450-cyp2c19 Compounds with AC50 equal or less than 10 uM are considered active. The class given is functional. To be noted: read-out: AC50.
The target in assay [11] is 5-hydroxytryptamine receptor 5A (Homo sapiens, UniProt P47898). In words: Counterscreen for agonists of OPRM1-OPRD1 heterodimerization: luminescence-based cell-based high throughput dose response assay to identify agonists of 5-hydroxytryptamine (serotonin) 5A receptor (HTR5A). [Related pubchem assays (depositor defined):AID504326, AID504355, AID504692, AID504904, AID504905]. The class given is functional. (A counterscreen serves to expose hits that act by an unwanted route or on another target.)

In assay [12] the target is Delta-type opioid receptor (Homo sapiens, UniProt P41143). In words: Counterscreen for agonists of heterodimerization of the mu 1 (OPRM1) and delta 1 (OPRD1) opioid receptors: Luminescence-based cell-based high throughput dose response assay to identify agonists of OPRD1 homodimerization. [Related pubchem assays (depositor defined):AID504326, AID504355, AID504692, AID504904, AID504905]. The format is functional.

For assay [13], the target named is T4, Short transient receptor potential channel 4 (Mus musculus, UniProt Q9QUQ5).
T4 sequence (Q9QUQ5 whole entry): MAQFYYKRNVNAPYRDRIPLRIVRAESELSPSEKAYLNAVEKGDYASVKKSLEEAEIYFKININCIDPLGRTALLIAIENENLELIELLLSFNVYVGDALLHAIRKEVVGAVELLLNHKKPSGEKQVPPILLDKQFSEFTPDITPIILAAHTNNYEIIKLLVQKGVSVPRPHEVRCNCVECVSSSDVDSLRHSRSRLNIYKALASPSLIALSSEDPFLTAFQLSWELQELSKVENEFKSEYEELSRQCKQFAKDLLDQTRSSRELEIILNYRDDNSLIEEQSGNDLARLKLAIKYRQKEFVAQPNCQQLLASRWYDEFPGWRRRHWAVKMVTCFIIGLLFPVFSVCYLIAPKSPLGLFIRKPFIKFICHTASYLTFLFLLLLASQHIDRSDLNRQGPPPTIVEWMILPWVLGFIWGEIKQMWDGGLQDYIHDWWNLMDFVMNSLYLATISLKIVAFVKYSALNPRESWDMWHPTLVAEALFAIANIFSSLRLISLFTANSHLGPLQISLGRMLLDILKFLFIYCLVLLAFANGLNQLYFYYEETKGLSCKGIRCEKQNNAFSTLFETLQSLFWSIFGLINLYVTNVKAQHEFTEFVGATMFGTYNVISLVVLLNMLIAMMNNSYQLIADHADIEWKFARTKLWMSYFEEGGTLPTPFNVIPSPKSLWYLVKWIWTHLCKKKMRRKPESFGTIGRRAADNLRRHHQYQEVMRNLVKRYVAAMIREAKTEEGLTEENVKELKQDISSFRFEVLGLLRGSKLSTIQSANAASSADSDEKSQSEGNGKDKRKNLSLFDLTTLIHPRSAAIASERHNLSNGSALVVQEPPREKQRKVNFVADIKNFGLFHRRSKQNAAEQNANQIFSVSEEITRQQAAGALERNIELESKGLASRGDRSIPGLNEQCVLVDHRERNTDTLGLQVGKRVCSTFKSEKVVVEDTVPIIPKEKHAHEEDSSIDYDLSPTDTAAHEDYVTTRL
In words: calcium entry via TRPC4 opening agents – cell-based, HEK293 TRPC4/mu-opioid, Fluo-4 calcium, dose response (AID 434937). The class given is functional.

The target in the next assay is Cytochrome P450 3A4 (Homo sapiens, UniProt P08684).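 Note: CYP3A4 tested as one member of a cytochrome P450 panel screen.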
Assay [14] concerns the target T4, Short transient receptor potential channel 4. In words: block of DAMGO-driven TRPC4 calcium entry – cell-based, HEK293 TRPC4/mu-opioid, Fluo-4 calcium, dose response (AID 434942).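 Note: potency of inhibitors blocking the TRPC4 calcium response.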 The class given is functional.
Another assay deals with Mu-type opioid receptor (Homo sapiens, UniProt P35372). In words: Counterscreen for agonists of heterodimerization of the mu 1 (OPRM1) and delta 1 (OPRD1) opioid receptors: Luminescence-based cell-based high throughput dose response assay to identify agonists of OPRM1 homodimerization. The format is functional.

Active and inactive are the calls of the source.

Sequence of 5-hydroxytryptamine receptor 5A (P47898 whole entry): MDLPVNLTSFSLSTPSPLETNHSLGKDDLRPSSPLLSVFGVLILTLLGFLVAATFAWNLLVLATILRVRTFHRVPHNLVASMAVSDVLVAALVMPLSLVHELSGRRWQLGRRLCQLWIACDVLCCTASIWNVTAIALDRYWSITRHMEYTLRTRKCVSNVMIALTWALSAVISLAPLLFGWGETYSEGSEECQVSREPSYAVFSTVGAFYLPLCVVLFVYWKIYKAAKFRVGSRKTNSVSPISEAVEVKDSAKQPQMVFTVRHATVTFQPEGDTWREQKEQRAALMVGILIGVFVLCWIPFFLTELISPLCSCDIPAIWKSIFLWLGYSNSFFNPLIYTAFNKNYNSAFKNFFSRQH
Sequence of ATP-dependent molecular chaperone HSP82 (C4YTQ8 whole entry): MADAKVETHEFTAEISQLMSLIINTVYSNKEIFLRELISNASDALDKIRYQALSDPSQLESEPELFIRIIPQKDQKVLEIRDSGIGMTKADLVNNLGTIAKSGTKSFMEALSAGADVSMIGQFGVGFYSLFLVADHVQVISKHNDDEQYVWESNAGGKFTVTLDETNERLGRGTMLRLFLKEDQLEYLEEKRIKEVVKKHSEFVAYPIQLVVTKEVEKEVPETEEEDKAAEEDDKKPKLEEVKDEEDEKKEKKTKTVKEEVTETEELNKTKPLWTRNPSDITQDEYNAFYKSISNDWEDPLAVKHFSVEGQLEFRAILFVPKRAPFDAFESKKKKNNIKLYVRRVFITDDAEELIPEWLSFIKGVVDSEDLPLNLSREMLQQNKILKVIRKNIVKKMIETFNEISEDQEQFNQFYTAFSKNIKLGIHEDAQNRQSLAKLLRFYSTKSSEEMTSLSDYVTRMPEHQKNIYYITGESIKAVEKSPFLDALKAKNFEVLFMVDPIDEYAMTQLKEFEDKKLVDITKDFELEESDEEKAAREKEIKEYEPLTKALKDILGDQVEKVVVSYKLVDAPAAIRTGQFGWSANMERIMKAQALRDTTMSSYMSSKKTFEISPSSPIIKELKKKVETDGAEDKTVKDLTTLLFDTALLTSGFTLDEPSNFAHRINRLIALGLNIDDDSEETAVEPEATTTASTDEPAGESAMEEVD
Sequence of Mu-type opioid receptor (P35372 whole entry): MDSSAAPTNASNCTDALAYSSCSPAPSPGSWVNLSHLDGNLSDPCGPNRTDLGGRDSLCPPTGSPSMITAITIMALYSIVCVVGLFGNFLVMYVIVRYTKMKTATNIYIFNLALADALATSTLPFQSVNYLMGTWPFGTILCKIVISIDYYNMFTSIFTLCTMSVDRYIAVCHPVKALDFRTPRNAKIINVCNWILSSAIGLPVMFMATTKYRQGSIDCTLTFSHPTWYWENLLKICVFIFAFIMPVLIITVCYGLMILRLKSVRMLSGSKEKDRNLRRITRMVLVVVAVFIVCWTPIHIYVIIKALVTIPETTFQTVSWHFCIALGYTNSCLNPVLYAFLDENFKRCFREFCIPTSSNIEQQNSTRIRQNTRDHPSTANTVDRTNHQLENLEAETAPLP
Sequence of Delta-type opioid receptor (P41143 whole entry): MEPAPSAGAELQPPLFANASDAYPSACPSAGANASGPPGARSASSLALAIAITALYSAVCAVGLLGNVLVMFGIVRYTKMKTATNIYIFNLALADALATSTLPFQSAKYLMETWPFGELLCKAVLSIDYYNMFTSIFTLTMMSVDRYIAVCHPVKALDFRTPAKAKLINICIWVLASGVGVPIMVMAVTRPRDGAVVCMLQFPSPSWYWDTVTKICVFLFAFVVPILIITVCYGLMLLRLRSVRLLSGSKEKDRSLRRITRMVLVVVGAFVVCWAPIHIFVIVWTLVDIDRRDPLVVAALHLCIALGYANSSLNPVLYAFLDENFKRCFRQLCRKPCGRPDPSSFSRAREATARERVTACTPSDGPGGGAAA
Sequence of Serine/threonine-protein phosphatase (B9W6M3 whole entry): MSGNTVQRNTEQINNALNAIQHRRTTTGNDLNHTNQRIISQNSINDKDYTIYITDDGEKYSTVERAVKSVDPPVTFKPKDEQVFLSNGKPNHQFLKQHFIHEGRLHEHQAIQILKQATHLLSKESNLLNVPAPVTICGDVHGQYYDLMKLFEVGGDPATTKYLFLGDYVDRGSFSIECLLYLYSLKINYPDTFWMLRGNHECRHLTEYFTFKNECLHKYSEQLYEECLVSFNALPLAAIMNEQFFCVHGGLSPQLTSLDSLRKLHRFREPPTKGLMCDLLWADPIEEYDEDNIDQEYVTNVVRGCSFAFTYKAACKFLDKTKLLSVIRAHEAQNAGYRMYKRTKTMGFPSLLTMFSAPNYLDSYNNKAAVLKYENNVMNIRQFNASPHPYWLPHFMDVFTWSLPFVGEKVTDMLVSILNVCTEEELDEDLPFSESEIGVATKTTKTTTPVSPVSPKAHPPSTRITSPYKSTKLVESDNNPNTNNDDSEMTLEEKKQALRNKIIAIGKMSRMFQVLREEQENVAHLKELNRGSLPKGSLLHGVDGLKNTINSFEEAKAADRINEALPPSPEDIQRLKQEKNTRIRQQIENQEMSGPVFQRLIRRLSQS
Sequence of Cytochrome P450 2C19 (P33261 whole entry): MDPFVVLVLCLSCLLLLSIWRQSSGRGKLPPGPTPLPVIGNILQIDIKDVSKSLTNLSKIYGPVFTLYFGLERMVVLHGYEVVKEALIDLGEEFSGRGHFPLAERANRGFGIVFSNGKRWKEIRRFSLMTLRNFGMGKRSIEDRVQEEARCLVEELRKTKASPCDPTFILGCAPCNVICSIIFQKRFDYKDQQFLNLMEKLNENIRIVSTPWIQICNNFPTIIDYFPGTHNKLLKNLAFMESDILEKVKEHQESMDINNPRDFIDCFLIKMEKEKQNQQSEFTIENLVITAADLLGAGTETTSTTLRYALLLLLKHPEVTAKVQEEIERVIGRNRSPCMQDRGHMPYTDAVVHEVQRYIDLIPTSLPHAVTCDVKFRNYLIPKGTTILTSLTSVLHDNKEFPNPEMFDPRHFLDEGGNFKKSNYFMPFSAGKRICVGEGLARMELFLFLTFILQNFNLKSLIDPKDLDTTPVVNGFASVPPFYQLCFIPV
Sequence of Nonstructural protein 1 (Q194T2 whole entry): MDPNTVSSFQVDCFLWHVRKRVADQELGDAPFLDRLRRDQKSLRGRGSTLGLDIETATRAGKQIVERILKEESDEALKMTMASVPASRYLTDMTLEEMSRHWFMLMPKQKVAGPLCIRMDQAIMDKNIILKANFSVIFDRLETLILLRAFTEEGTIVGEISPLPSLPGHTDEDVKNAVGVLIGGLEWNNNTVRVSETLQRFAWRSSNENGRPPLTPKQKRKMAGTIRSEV
Sequence of Estrogen receptor beta (Q92731 whole entry): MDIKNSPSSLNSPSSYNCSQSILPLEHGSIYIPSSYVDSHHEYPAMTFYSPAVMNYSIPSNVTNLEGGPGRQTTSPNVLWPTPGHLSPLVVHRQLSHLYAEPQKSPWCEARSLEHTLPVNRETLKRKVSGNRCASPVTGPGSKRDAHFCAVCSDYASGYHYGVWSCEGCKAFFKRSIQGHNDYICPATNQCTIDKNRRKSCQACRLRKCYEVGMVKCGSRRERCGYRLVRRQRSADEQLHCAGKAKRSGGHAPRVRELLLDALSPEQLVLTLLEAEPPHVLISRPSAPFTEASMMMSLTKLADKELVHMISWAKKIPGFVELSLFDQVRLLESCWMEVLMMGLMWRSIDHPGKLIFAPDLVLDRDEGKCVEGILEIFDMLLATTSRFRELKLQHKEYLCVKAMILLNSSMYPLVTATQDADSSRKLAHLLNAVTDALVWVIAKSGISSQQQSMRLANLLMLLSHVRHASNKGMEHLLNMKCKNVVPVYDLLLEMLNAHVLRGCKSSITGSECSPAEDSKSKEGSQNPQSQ
Sequence of Cytochrome P450 3A4 (P08684 whole entry): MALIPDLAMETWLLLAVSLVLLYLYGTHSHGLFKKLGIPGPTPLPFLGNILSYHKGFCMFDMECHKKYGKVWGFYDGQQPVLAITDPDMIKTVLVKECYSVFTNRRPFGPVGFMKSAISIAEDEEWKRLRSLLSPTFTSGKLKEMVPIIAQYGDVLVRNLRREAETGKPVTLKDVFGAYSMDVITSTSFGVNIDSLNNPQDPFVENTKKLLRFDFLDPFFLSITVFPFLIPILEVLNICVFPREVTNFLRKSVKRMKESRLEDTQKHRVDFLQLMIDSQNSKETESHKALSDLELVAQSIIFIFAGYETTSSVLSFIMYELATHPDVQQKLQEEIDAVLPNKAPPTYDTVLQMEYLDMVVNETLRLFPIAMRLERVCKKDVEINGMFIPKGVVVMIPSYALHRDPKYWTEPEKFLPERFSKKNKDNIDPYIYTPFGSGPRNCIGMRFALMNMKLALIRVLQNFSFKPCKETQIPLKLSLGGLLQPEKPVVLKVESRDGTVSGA

In the case of `CCn1c(Sc2nc(C)nc3scc(-c4cccs4)c23)n[nH]c1=O`, the figures for the EC50 in [1] and in assay [2] were > 180 µM (inactive) and 30.7 µM (active), respectively.

As to `CCN1CCN(C(c2cccnc2)c2cc(Cl)c3cccnc3c2O)CC1` (stereo not given), the EC50 is 12.7 µM (active) in assay [3]; > 60 µM (not active) in [4]; 2.13 µM (active) in [5]; > 180 µM (inactive) in assay [1]; 0.916 µM (active) in assay [6]; 15.1 µM (active) in [8]. The EC50 in assay [9] is > 150 µM (inactive); in [2] it was > 150 µM (inactive); at Protein RecA it was 1.8 µM (active); in assay [10] it was > 195 µM (not active). Also, the values for the IC50 on Nonstructural protein 1 and against Estrogen receptor beta were 17.8 µM (active) and 2.39 µM (not active), respectively. The AC50 in [7] was > 380 µM (inactive).

Regarding `CN1C2C=C(N(CCc3c[nH]c4ccccc34)C(=O)c3ccc(Cl)cc3)CC1CC2` (stereo not given), the AC50 at Cytochrome P450 2C19 was 5.01 µM (inconclusive); at Cytochrome P450 3A4, 17.8 µM (inconclusive). In addition, the EC50 in assay [11] was > 92.5 µM (inactive); in [12], > 92.5 µM (inactive); in assay [13], 0.596 µM (active); in assay [14], 0.211 µM (active); on Mu-type opioid receptor it was 47.9 µM (inactive).

Consider `CSCCCNC(=O)c1ccc(OC2CCN(CCc3ccccc3)CC2)cc1`, for which the EC50 (in assay [11]; in assay [12]; at Mu-type opioid receptor) was > 92.5 µM (inactive) throughout.
